How the values were obtained:
Type in all cases: in vivo
[1] = test system: AVEFA (Avena fatua); experiment: Greenhouse post-emergence test, test series 1, AVEFA; settings: application rate 62.5 g/ha, scale 0 to 100 (100 = complete destruction, 0 = no damage)
Description: (§1) The seeds of the test plants were sown separately for each species. For the pre-emergence treatment, the active ingredients, which had been suspended or emulsified in water, were applied directly after sowing by means of finely distributing nozzles. The containers were irrigated gently to promote germination and growth and subsequently covered with transparent plastic hoods until the plants had rooted. This cover caused uniform germination of the test plants, unless this had been impaired by the active ingredients. For the post-emergence treatment, the test plants were first grown to a height of 3 to 15 cm, depending on the plant habit, and only then treated with the active ingredients which had been suspended or emulsified in water. For this purpose, the test plants were either sown directly and grown in the same containers, or they were first grown separately as seedlings and transplanted into the test containers a few days prior to treatment. Depending on the species, the plants were kept at 10-25° C. or 20-25° C., respectively. The test period extended over 2 to 4 weeks. During this time, the plants were tended, and their response to the individual treatments was evaluated. Evaluation was carried out using a scale from 0 to 100. 100 means no emergence of the plants, or complete destruction of at least the aerial moieties, and 0 means no damage, or normal course of growth. A good herbicidal activity is given at values of at least 70 and a very good herbicidal activity is given at values of at least 85. Test Series 1: At an application rate of 62.5 g/ha the following compounds were tested in post-emergence tests against: AVEFA (Avena fatua)

[2] = test system: ECHCG (Echinocloa crus-galli); experiment: Greenhouse post-emergence test, test series 1, ECHCG; settings: Echinochloa crus-galli, application rate 62.5 g/ha, scale 0 to 100 (100 = complete destruction, 0 = no damage)
Description: as §1, with “ECHCG (Echinocloa crus-galli)” for “AVEFA (Avena fatua)”

[3] = test system: ALOMY (Alopecurus myosuroiedes); experiment: Greenhouse pre-emergence test, test series 2, ALOMY; settings: application rate 125 g/ha, scale 0 to 100 (100 = no emergence, 0 = no damage)
Description: as §1, with “Series 2:” for “Series 1:”, “of 125” for “of 62.5”, “in pre-emergence” for “in post-emergence”, “tests against ALOMY (Alopecurus myosuroiedes)” for “tests against: AVEFA (Avena fatua)”

Cc1c(NC(=O)N(C)CC(F)(F)F)c(Br)cc(F)c1C(=O)Nc1nnnn1C [Example 1, 4-bromo-6-fluoro-2-methyl-N-(1-methyltetrazol-5-yl)-3-[[methyl(2,2,2-trifluoroethyl)carbamoyl]amino]benzamide]
> 85%: pest or weed control at 62.5 g/ha [1] | pest or weed control at 62.5 g/ha [2] | pest or weed control at 125 g/ha [3]

CCN(CC(F)(F)F)C(=O)Nc1c(Br)cc(F)c(C(=O)Nc2nnnn2C)c1C [Example 2, 4-bromo-6-fluoro-2-methyl-N-(1-methyltetrazol-5-yl)-3-[[ethyl(2,2,2-trifluoroethyl)carbamoyl]amino]benzamide]
> 85%: pest or weed control at 62.5 g/ha [1] | pest or weed control at 62.5 g/ha [2] | pest or weed control at 125 g/ha [3]

Cc1c(NC(=O)N(CC(F)(F)F)CC(F)(F)F)c(Br)cc(F)c1C(=O)Nc1nnnn1C [Example 3]
> 85%: pest or weed control at 62.5 g/ha [1] | pest or weed control at 62.5 g/ha [2] | pest or weed control at 125 g/ha [3]

Cc1c(NC(=O)N(CC(F)(F)F)C2CC2)c(Br)cc(F)c1C(=O)Nc1nnnn1C [Example 6]
> 85%: pest or weed control at 62.5 g/ha [1] | pest or weed control at 62.5 g/ha [2] | pest or weed control at 125 g/ha [3]

Cn1nnnc1NC(=O)c1c(F)cc(Cl)c(NC(=O)N(CC(F)(F)F)C2CC2)c1Cl [Example 7]
> 85%: pest or weed control at 62.5 g/ha [1] | pest or weed control at 62.5 g/ha [2] | pest or weed control at 125 g/ha [3]

CCN(CC(F)(F)F)C(=O)Nc1c(Cl)cc(F)c(C(=O)Nc2nnnn2C)c1Cl [Example 8]
> 85%: pest or weed control at 62.5 g/ha [1] | pest or weed control at 62.5 g/ha [2] | pest or weed control at 125 g/ha [3]

CN(CC(F)(F)F)C(=O)Nc1c(Cl)cc(F)c(C(=O)Nc2nnnn2C)c1Cl [Example 9, 2,4-dichloro-6-fluoro-N-(1-methyltetrazol-5-yl)-3-[[methyl(2,2,2-trifluoroethyl)carbamoyl]amino]benzamide]
> 85%: pest or weed control at 62.5 g/ha [1] | pest or weed control at 62.5 g/ha [2] | pest or weed control at 125 g/ha [3]

CN(CC(F)(F)F)C(=O)Nc1c(C(F)(F)F)cc(F)c(C(=O)Nc2nnnn2C)c1Cl [Example 10]
> 85%: pest or weed control at 62.5 g/ha [1] | pest or weed control at 62.5 g/ha [2] | pest or weed control at 125 g/ha [3]

Cc1c(NC(=O)N(C)CC(F)(F)F)c(Cl)cc(F)c1C(=O)Nc1nnnn1C [Example 12]
> 85%: pest or weed control at 62.5 g/ha [1] | pest or weed control at 62.5 g/ha [2] | pest or weed control at 125 g/ha [3]

Cc1c(NC(=O)N(CC(F)(F)F)C(C)C)c(Cl)cc(F)c1C(=O)Nc1nnnn1C [Example 13]
> 85%: pest or weed control at 62.5 g/ha [1] | pest or weed control at 62.5 g/ha [2] | pest or weed control at 125 g/ha [3]

CC(C)N(CC(F)(F)F)C(=O)Nc1c(C(F)(F)F)cc(F)c(C(=O)Nc2nnnn2C)c1Cl [Example 14]
> 85%: pest or weed control at 62.5 g/ha [1] | pest or weed control at 62.5 g/ha [2] | pest or weed control at 125 g/ha [3]

CCN(CC(F)(F)F)C(=O)Nc1c(Cl)cc(F)c(C(=O)Nc2nnnn2C)c1C [Example 18]
> 85%: pest or weed control at 62.5 g/ha [1] | pest or weed control at 62.5 g/ha [2] | pest or weed control at 125 g/ha [3]

Cc1c(NC(=O)N(CC(F)(F)F)CC(F)(F)F)c(Cl)cc(F)c1C(=O)Nc1nnnn1C [Example 19]
> 85%: pest or weed control at 62.5 g/ha [1] | pest or weed control at 62.5 g/ha [2] | pest or weed control at 125 g/ha [3]

CC(C)N(CC(F)(F)F)C(=O)Nc1c(Cl)cc(F)c(C(=O)Nc2nnnn2C)c1Cl [Example 20]
> 85%: pest or weed control at 62.5 g/ha [1] | pest or weed control at 62.5 g/ha [2] | pest or weed control at 125 g/ha [3]

Cc1c(NC(=O)N(CC(F)(F)F)C2CC2)c(Cl)cc(F)c1C(=O)Nc1nnnn1C [Example 21]
> 85%: pest or weed control at 62.5 g/ha [1] | pest or weed control at 62.5 g/ha [2] | pest or weed control at 125 g/ha [3]

Cn1nnnc1NC(=O)c1c(F)cc(C(F)(F)F)c(NC(=O)N(CC(F)(F)F)CC(F)(F)F)c1Cl [Example 22]
> 85%: pest or weed control at 62.5 g/ha [1] | pest or weed control at 62.5 g/ha [2] | pest or weed control at 125 g/ha [3]
